From ChEMBL document CHEMBL4765301, “Discovery of novel TNNI3K inhibitor suppresses pyroptosis and apoptosis in murine myocardial infarction injury” (Eur J Med Chem, 2020)

Tested on: H9c2
Assay: Inhibition of OGD-induced apoptosis in rat H9c2 cells assessed as necrotic cells at 1 uM incubated for 24 hrs by annexinV-FITC and PI staining based flow cytometry analysis (reference value: 2.45 %)
Assay type: functional

## CN(C)CCCN1CCc2c(sc3ncnc(Nc4ccc(N(C)C)c(NC(=O)c5ccco5)c4)c23)C1
  inhibition at 1 µM: 1.07%
